Experimental findings from US20220370545A1, “INTEGRIN RECEPTOR ALPHA V BETA 3 AND ITS LIGAND INVOLVED IN CHRONIC ITCH” (North Carolina State University, priority 2019, published 2022) are described below.

Ends that are not written are not given here.

The target of one data set is T1, TRPV1 receptor (Mus musculus, UniProt Q704Y3).
T1 construct: endogenous in cells; host or cells: primary mouse dorsal root ganglion neurons
Description: Capsaicin-induced calcium response in DRG neurons (specificity control). In kind it is cell-based. The note with it: capsaicin 1 μM. Here is the method:
(§1) Before imaging, cells were incubated in 350 μL of complete media containing 1 μM Fura-2 AM (Enzo Life Sciences, Farmingdale, New York, United States of America) for 30 min at 37° C. with 5% CO2. During imaging, the cells were perfused with a buffer containing the following: 135 mM sodium chloride, 3.2 mM potassium chloride, 2.5 mM magnesium chloride, 2.8 mM calcium chloride, 667 μM monobasic sodium phosphate, 14.2 mM sodium bicarbonate, and 10.9 mM D-glucose (all from VWR International, Radnor, Pennsylvania, United States of America) with a pH between 7.00 and 7.40. The buffer and the holding plate were kept at 37° C. while imaging. Imaging data was collected on a TE200 inverted microscope using NIS Elements software (Nikon, Melville, New York, United States of America). Cells were exposed to 340 nm and 380 nm wavelengths for 100 ms and the A340/A380 ratio was calculated. Traces were analyzed using Excel and responses greater than 10% of the baseline were counted. Each data point in the scatter plots represented one coverslip.
(§2) Calcium Imaging: Calcium imaging will be performed on the DRG neurons as previously described (Pitake et al., 2018). Briefly, DRG neurons will be incubated for longer than 30 min in DMEM containing 1 μM of a fluorescent indicator Fura-2 AM (Enzo Life Sciences, Inc., Farmingdale, N.Y., United States of America). The neurons will be perfused in a standard bath solution containing 140 mM NaCl, 5 mM KCl, 2 mM MgCl2, 2 mM CaCl2, 10 mM Hepes and 10 mM D-glucose at pH 7.4 adjusted with NaOH. A calcium-free bath solution will be prepared by omitting 2 mM CaCl2 from the standard bath solution […] adding 5 mM EGTA. Fura-2 fluorescence excited at 340 and 380 nm and emission will be monitored at 510 nm with a digital CCD camera (Andor Clara DR-4152, Andor Technology Ltd, Belfast, United Kingdom). Data will be obtained by every 100 ms using an imaging software (NIS-Elements AR 4.13.04, Nikon Corporation, Tokyo, Japan) and analyzed by Microsoft Excel (Microsoft Corporation, Redmond, Wash., United States of America). Values of calcium responses will be normalized by dividing measured values (F) with average values of initial 5 frames (F0) of each cell and described as F/F0. In this study, changes in each response to an application with F/F0>0.1 will be regarded as positive. Cells not responding to 100 mM KCl, which is applied at the end of each experiment, will be regarded as non-neuronal cells and excluded from analysis.
Additional inhibitors were studied using the calcium imaging method described in Example 3. Briefly, the Fura2-AM calcium imaging method was performed on live dorsal root ganglia (DRG) neurons (ex vivo). The DRG neurons are pre-incubated with the inhibitors P11 (Catalog #4744, Tocris Bioscience, Bristol, United Kingdom) and LM609 (Catalog #MAB1876, Millipore Sigma, Burlington, Mass., United States of America) or vehicle for 10 minutes and further stimulated with periostin or capsaicin in the presence of inhibitors. For Echistatin (Catalog #3202/100U, R&D Biosystems, Minneapolis, Minn., United States of America), MK-0429, and SB273005 (Catalog #S75-40, Selleck Chemicals Llc, Houston, Tex., United States of America), the DRG neurons were perfused with a normal Locke buffer vehicle or modified Locke buffer as described below. The values were normalized with KCl ([…]) to identify neuronal responses in all the calcium response data below.

Data set [1] relates to Integrin αvβ3 on DRG Sensory Neurons. Description: Fura-2 calcium imaging of periostin-induced calcium response in cultured DRG sensory neurons. It is filed as cell-based, mouse. The protocol: DRGs were isolated from mice and dissociated in 1 mL of media containing 2.5 U/mL of dispase (Fisher Scientific, Hampton, New Hampshire, United States of America) and 2.5 mg/mL of collagenase (Fisher Scientific, Hampton, New Hampshire, United States of America). After dissociation, the cells were washed with complete media (DMEM (HiMedia Laboratories, Mumbai, India) with 10% FBS (Atlanta Biologicals, Flowery Branch, Georgia, United States of America) and 1% PenStrep (VWR International, Radnor, Pa., United States of America)) and pelleted at 1000 rpm for 15 minutes. Approximately 30 μL of the cell suspension was plated on 18 mm round glass slides with a coating of laminin (Sigma Aldrich, St. Louis, Miss., United States of America) and poly-L-lysine (Sigma Aldrich, St. Louis, Miss., United States of America) and incubated for 1.5 hours. Afterwards, 1 mL of complete media was added, and the cells were incubated overnight. All incubation steps were done at 37° C. with 5% CO2.
as §1, §2
Periostin (10 ug/ml) will be used to evoke calcium influx. This response has been optimized. The peptide inhibitors will be tested on DRG neurons to measure calcium influx in response to periostin. Data on calcium imaging will be presented by presenting each mouse±SEM. The IC50 value of the inhibitor will also be determined
Additional inhibitors were studied using the calcium imaging method described in Example 3. Briefly, the Fura2-AM calcium imaging method was performed on live dorsal root ganglia (DRG) neurons (ex vivo). […]

Data set [2] concerns murine keratinocyte cell line (Balb/MK2). Description: TSLP-induced periostin production in Balb/MK2 keratinocytes (ELISA). The note with it: for TSLP-induced periostin release: pre-exposed 4 hrs to 10 μmol/l inhibitor, then TSLP 10 ng/ml for 24 h. In kind it is cell-based, mouse. The protocol:
The murine keratinocyte cell line (Balb/MK2) was used in this study to determine the periostin production induced by TSLP. Cells were cultured in EMEM medium according to the previously described method (Fukuyama et al., 2018). Confluent cells were exposed to TSLP at 1 or 10 ng/ml in FBS-free medium for 24 hrs. Inhibitory effect of the JAK2 inhibitor, SD 1008 and the STAT3 inhibitor, niclosamide, on TSLP-induced periostin production was also quantified using the murine Balb/MK2 keratinocyte cell line. Confluent cells were pre-exposed for 4 hrs to SD 1008 (10 μmol/l) or niclosamide (10 μmol/l), before being exposed to the TSLP at 10 ng/ml for a further 24 h. After TSLP exposure, periostin levels in cell supernatant were determined by ELISA according to the manufacturer's instructions.

Data set [3] relates to NC/Nga mice sensitized with Dermatophagoides farinae HDM. Description: House dust mite (HDM) allergic itch model in NC/Nga mice. In kind it is in vivo, mouse. The protocol: C57BL6 mice (Jackson Labs, Ellsworth, Maine, United States of America) were applied daily with MC903 (4 nmol) and vehicle (97% ethanol) after brief anesthesia. Skin thickness was measured using cutimeter as described (Fukuyama et al., 2015). Scratching behavior was video-monitored for 30 min on Day 1 and Day 7. On Day 7 skin was collected from vehicle and MC903 treated mice for the Western Blot (WB) as described below. NC/Nga mice (Charles River, Yokohama, Japan) were sensitized and challenged with house dust mite (HDM) allergen (Dermatophagoides farina, Greer, Lenoir, N.C., United States of Amercia) as described previously (Fukuyama et al., 2018). In short, for sensitization, 30 μl of HDM in mineral oil (10 mg/ml) was applied topically to the clipped back twice weekly supported by tape stripping until visible lesions had developed. After development of visible lesions mice were treated daily either with vehicle cream or betamethasone dipropionate (0.1% in lipoderm, n=8). […] Scratching behavior was video monitored for 60 min period immediately after HDM on day 42. For periostin measurement, mice were sacrificed for determination of periostin in skin on day 43. A portion of back skin tissue were snap-frozen in liquid nitrogen. Briefly, samples were homogenized under liquid nitrogen, and the homogenates were taken in 200 μL RPMI 1640 medium containing 1 mmol/L Pefabloc. The amount of periostin was determined using ELISA according to the manufacturer's instruction.

The test system of the next data set is mouse cornea. Put plainly: Eye wipes assay (corneal application). It is filed as in vivo. Conditions: wild-type mice, wiping measured for 1 minute. The protocol:
All behavioral experiments were conducted during the light cycle at ambient temperature (23° C.). Behavioral assessment of scratching behavior was conducted as described previously (Mishra et al., 2011). Briefly, mice were injected intradermal into the nape of the neck with periostin (R&D), histamine, and chloroquine (all Millipore-Sigma) as previously described (Shimada and LaMotte, 2008). Compounds were diluted in PBS and the same was used as a vehicle. […] Additionally, cilengitide and periostin were combined together (mix) and injected i.d. into the dorsal neck of mouse. Scratching behavior was recorded for 30 minutes and data was presented in bouts per 30 minutes for mice. […] For eye wipes assay, periostin and capsaicin were dropped on mouse cornea and counted wipes for 1-minute. […] For dog's study, periostin (25 μg/25 μl) was injected in the dorsal neck (s.c.) and behavior was recorded and quantified for 30 minutes as “duration of pruritus manifestation” (DPM), as described earlier (Paps et al., 2016). […] When different raters separately scored a single tape, the ratings indicated high interrater reliability (coefficient of correlation, r>0.95). This method of itch readout in NHP has been used and accepted (Ko and Naughton, 2000). The behavior was recorded for 30 minutes duration and number of scratches quantified. […]

Data set [4] has as its target integrin αvβ3 on mouse dorsal root ganglia (DRG) sensory neurons (mouse) (UniProt P43406). Put plainly: cell-based or functional assay.

T1 sequence (Q704Y3 whole entry): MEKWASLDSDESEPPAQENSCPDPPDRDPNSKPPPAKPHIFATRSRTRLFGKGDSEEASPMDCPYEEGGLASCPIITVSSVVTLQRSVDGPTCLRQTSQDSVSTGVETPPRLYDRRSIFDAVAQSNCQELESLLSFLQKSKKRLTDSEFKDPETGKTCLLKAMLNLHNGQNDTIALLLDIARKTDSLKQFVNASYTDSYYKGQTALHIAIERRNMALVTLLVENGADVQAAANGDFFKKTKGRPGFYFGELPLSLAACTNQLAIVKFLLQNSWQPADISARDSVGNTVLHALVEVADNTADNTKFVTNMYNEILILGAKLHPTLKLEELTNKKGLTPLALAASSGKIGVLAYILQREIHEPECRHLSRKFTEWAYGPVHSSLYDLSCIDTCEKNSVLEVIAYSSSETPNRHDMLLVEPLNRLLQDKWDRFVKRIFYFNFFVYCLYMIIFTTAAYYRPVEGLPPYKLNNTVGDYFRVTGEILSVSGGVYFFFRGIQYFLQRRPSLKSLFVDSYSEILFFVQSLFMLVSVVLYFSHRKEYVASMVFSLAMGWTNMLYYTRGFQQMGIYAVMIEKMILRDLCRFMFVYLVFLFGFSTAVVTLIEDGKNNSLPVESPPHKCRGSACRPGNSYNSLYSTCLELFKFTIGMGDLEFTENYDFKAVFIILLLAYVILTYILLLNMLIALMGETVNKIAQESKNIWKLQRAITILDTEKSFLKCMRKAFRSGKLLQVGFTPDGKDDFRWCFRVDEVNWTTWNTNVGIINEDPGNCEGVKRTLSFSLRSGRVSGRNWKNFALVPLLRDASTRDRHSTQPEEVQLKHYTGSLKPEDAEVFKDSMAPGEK
integrin αvβ3 on mouse dorsal root ganglia (DRG) sensory neurons (mouse), sequence (P43406 31-1044, chain 1 of 2): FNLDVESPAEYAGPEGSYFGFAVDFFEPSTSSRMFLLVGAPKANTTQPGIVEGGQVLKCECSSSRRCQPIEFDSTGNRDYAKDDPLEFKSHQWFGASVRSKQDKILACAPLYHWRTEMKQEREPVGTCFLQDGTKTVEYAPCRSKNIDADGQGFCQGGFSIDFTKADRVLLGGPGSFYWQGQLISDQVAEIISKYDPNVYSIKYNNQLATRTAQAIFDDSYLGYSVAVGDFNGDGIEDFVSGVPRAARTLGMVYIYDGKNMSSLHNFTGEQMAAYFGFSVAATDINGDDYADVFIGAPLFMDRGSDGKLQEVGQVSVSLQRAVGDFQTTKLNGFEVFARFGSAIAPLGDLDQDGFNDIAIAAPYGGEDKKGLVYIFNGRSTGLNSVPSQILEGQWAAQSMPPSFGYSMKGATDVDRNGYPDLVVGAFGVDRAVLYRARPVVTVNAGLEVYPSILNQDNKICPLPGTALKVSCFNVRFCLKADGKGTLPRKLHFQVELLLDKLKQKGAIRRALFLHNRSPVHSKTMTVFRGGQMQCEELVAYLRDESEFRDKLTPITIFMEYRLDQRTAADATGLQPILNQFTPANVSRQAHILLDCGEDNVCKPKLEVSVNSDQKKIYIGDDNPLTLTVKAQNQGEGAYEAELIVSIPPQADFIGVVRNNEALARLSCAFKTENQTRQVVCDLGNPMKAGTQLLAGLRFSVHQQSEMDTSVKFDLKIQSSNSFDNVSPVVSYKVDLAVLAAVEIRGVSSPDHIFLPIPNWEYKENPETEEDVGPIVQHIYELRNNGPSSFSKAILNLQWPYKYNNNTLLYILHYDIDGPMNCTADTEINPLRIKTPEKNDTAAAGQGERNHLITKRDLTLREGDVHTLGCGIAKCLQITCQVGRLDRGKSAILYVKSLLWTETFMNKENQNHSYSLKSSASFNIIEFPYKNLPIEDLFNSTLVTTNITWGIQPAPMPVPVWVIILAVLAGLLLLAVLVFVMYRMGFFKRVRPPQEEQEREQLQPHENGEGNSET
integrin αvβ3 on mouse dorsal root ganglia (DRG) sensory neurons (mouse), sequence (O54890 26-787, chain 2 of 2, further chain): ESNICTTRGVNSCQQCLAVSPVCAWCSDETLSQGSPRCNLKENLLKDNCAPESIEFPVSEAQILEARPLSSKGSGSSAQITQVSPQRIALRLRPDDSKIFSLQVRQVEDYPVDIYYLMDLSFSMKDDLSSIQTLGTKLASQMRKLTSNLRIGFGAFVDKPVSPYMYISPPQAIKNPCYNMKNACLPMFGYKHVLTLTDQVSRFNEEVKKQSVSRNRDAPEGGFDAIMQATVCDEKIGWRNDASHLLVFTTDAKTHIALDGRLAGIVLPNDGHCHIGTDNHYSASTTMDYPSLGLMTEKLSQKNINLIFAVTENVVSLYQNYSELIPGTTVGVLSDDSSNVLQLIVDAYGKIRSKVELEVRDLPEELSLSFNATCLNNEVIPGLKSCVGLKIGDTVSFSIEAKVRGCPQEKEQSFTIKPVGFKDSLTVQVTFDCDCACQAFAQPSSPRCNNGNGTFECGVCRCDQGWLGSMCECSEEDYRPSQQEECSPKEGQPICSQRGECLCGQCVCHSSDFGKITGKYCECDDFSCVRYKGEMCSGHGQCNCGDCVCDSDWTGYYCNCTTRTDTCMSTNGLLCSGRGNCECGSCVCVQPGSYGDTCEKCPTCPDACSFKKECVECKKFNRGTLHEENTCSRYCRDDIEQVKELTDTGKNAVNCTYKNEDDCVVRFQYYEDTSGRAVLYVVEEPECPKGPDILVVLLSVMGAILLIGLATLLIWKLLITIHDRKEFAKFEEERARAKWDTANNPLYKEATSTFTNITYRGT

Take `COc1ccc([C@H](CC(=O)O)N2CCN(CCCc3ccc4c(n3)NCCC4)C2=O)cn1` [MK-0429, (S)-3-(6-methoxypyridin-3-yl)-3-(2-oxo-3-(3-(5,6,7,8-tetrahydro-1,8-naphthyridin-2-yl)propyl)-imidazol-idin-1-yl)propanoic acid]: the capsaicin response result on TRPV1 receptor (MK-0429 80 nM or 160 nM) is “no changes”. Moreover, the “periostin response (calcium influx)” value in data set [1] (higher concentration of MK-0429 (160 nM)) is “significant reduction”.
Regarding `CNc1cccc(CCOc2ccc3c(c2)CN(CC(F)(F)F)C(=O)[C@H](CC(=O)O)C3)n1` [SB273005, (S)-2-(8-(2-(6-(methylamino)pyridin-2-yl)ethoxy)-3-oxo-2-(2,2,2-trifluoroethyl)-2,3,4,5-tetrahydro-1H-benzo-[c]azepin-4-yl)acetic acid], the capsaicin response result on TRPV1 receptor (SB273005 11 nM or 20 nM) was “No changes”. For the same molecule, in data set [1] (SB273005 11 nM, trend, not statistically significant), the “reduction of periostin-induced calcium response” value is recorded as “about 40%”. For the same molecule, the periostin-induced calcium response result in data set [1] (SB273005 higher concentration (20 nM)) was “significant reduction”.
In the case of `COC(=O)[C@@H]1[C@H](C(=O)OC)[C@H]2C=CC(=O)[C@@H]1N2Cc1ccccc1` [SD 1008], the TSLP-induced periostin release result in data set [2] is on record as “blocked”.
Regarding `COc1ccc2c(c1)CC[C@@H]1[C@@H]2CC[C@]2(C)[C@@H](NCCCCCCN3C(=O)C=CC3=O)CC[C@@H]12` [U73122], the periostin-induced calcium response entry in data set [1] (phospholipase C inhibitor U73122 1 μM) is recorded as “not affected”.
In the case of `CCC(=O)OCC(=O)[C@@]1(OC(=O)CC)[C@@H](C)C[C@H]2[C@@H]3CCC4=CC(=O)C=C[C@]4(C)[C@@]3(F)[C@@H](O)C[C@@]21C` [betamethasone dipropionate], the HDM-induced scratching result in data set [3] (betamethasone dipropionate 0.1% in lipoderm topically, day 42) is “reduced”. In addition, in data set [3] (betamethasone dipropionate 0.1% in lipoderm topically, skin ELISA day 43), the periostin skin levels entry is “reduced significantly”. The body weight entry in data set [3] (daily betamethasone dipropionate 0.1%, application reduced to every other day on day 26) is “significant weight loss”.
In the case of `COc1cc(CNC(=O)CCCC/C=C/C(C)C)ccc1O` [capsaicin], the “eye-wiping response to ocular application” value with mouse cornea is recorded as “robust eye-wipe behavior”.
As to `O=C1OC2(c3ccccc31)c1ccc(O)c(O)c1Oc1c2ccc(O)c1O` [gallein], in data set [1] (Gβγ blocker gallein 100 μM), the periostin-induced calcium response result is given as “not affected”.
Turning to `O=C(Nc1ccc([N+](=O)[O-])cc1Cl)c1cc(Cl)ccc1O` [niclosamide], the TSLP-induced periostin release entry in data set [2] is “blocked”.
Regarding Echistatin, on TRPV1 receptor (in presence of Echistatin), the capsaicin response entry is “remains unaffected”. Moreover, the “reduction in periostin-induced calcium influx” value in data set [1] (Echistatin 4 nM) is recorded as “around 80%”.
Turning to “His-Ser-Asp-Val-His-Lys-NH2 (HSDVHK-NH2) [P11]”, the capsaicin response result in the data set with TRPV1 receptor (P11 pre-treatment) is given as “no change”. Besides, the “reduction in periostin-induced calcium influx” value in data set [1] (P11 50 μg/ml, 10 minutes pre-incubation) is “about 78%”.
For the molecule “Recombinant Mouse Periostin (from UniProt Q62009 24-811) (ligand)”, the inward current in SST-positive DRG neurons in response to periostin (10 µg/ml), whole-cell patch clamp in data set [4] turned out to be 58.4 pA.

B1: TSLP: Th2 cytokine thymic stromal lymphopoietin, recombinant mouse (protein, UniProt Q9JIE6 20-140, looked up)
Thymic stromal lymphopoietin: YNFSNCNFTSITKIYCNIIFHDLTGDLKGAKFEQIEDCESKPACLLKIEYYTLNPIPGCPSLPDKTFARRTREALNDHCPGYPETERNDGTQEMAQEVQNICLNQTSQILRLWYSFMQSPE
On to B1, for which the “release of periostin from keratinocytes” value in data set [2] (TSLP 1 and 10 ng/ml, 24 hrs) was “induced the release of periostin”.
